The target of assay [1] is T1, ErbB2 or EGFR.
T1 construct: enzymes purified from a baculovirus expression system; Reagent production was conducted essentially as described in Brignola, P. S., et al, (2002) J. Biol. Chem. 277(2): 1576-1585
The experiment in a line: ErbB family substrate phosphorylation enzyme assay (HTRF), Method A or Method B. The format is biochemical. A digest of the protocol: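 Baculovirus-expressed EGFR or ErbB2 (0.8 or 10 nM in enzyme mix) phosphorylates biotinylated Peptide C with 20 µM ATP and 0.8 µM peptide (substrate-mix levels), MnCl2, pH 7.5. Reaction ran 90 min at 20 °C with EDTA stop and HTRF anti-phosphotyrosine read. Method A: enzyme added last; Method B: 1 h enzyme–compound preincubation.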
On the technique in general: Time-resolved FRET reads energy transfer from a long-lived donor to a nearby acceptor.

The test system of assay [2] is BT474 and HN5 tumor cell lines. In words: Methylene blue growth inhibition assay (cellular Method A). Format: cell-based, Human. Conditions: Homo sapiens, BT-474, 72 h, 3 days, read-out: Activity (Method): growth inhibition IC50 class. The method in brief: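 Colo205, BT474 and HN5 cells in DMEM/10% FBS (BT474 10,000, HN5 3,000 cells/well) treated next day with compound in DMEM, 0.3% final DMSO, for 3 days at 37° C. Biomass stained with methylene blue, solubilized, read at OD 620; IC50 interpolated by nonlinear regression from % inhibition versus vehicle.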

[3] abbreviates: Method A: substrate mix added first, reaction started with enzyme mix.
The mark [4] stands for this setting: Method B: enzyme mix pre-incubated with compound 1 hour at 20° C., started with substrate mix.

For the compound `S=C(Nc1cccc(-c2nn3ccccc3c2-c2ccnc(Nc3ccc4c(c3)OCCO4)n2)c1)c1ccccc1Cl` [Example 8, 2-Chloro-N-(3-{3-[2-(2,3-dihydro-benzo[1,4]dioxin-6-ylamino)-pyrimidin-4-yl]-pyrazolo[1,5-a]pyridin-2-yl}-phenyl)-thiobenzamide], in assay [1] (setting [3]), the “Activity (Method): pIC50 class against ErbB2 or EGFR” value (“Activity (Method): pIC50 class” below) is on record as “++ (A) (at least one pIC50 measurement greater than 6 against either ErbB2 or EGFR but no measurement greater than pIC50 of 7)”. Further, the IC50 in assay [2] was in the range of 100 to 1000 nM.

`O=C(Nc1cccc(-c2nn3ccccc3c2-c2ccnc(Nc3ccc4c(c3)CNCC4)n2)c1)c1c(F)cccc1F` [Example 64, 2,6-Difluoro-N-(3-{3-[2-(1,2,3,4-tetrahydro-7-isoquinolinylamino)-4-pyrimidinyl]pyrazolo[1,5-a]pyridin-2-yl}phenyl)benzamide]: the “Activity (Method): pIC50 class” value in assay [1] (setting [4]) is “+++ (B) (at least one pIC50 measurement of greater than 7 against either ErbB2 or EGFR)”. Moreover, in assay [2], the IC50 is less than 100 nM.

As to `O=C(Nc1cccc(-c2nn3ccccc3c2-c2ccnc(Nc3cccc(F)c3)n2)c1)c1cc(F)ccc1F` [Example 39, 2,5-Difluoro-N-[3-(3-{2-[(3-fluorophenyl)amino]-4-pyrimidinyl}pyrazolo[1,5-a]pyridin-2-yl)phenyl]benzamide], the “Activity (Method): pIC50 class” value in assay [1] (setting [4]) is “+++ (B) (at least one pIC50 measurement of greater than 7 against either ErbB2 or EGFR)”. Further, the IC50 in assay [2] lay within 100 to 1000 nM.

As for `O=C(Nc1cccc(-c2nn3ccccc3c2-c2ccnc(Nc3cccc(N4CCCC4=O)c3)n2)c1)c1cc(F)ccc1F` [Example 49, 2,5-Difluoro-N-{3-[3-(2-{[3-(2-oxo-1-pyrrolidinyl)phenyl]amino}-4-pyrimidinyl)pyrazolo[1,5-a]pyridin-2-yl]phenyl}benzamide], the “Activity (Method): pIC50 class” value in assay [1] (setting [3]) is on record as “+++ (A) (at least one pIC50 measurement of greater than 7 against either ErbB2 or EGFR)”. Also, the IC50 in assay [2] lay within 100 to 1000 nM.

Consider `O=C(Nc1cccc(-c2nn3ccccc3c2-c2ccnc(Nc3ccc4c(c3)OCCO4)n2)c1)c1ccccc1Cl` [Example 6, 2-Chloro-N-(3-{3-[2-(2,3-dihydro-benzo[1,4]dioxin-6-ylamino)-pyrimidin-4-yl]-pyrazolo[1,5-a]pyridin-2-yl}-phenyl)-benzamide], for which the “Activity (Method): pIC50 class” value in assay [1] (setting [3]) was “+++ (A) (at least one pIC50 measurement of greater than 7 against either ErbB2 or EGFR)”. Moreover, the IC50 in assay [2] was less than 100 nM.

`CCS(=O)(=O)Cc1ccc(Nc2nccc(-c3c(-c4cccc(NC(=O)c5cc(F)ccc5F)c4)nn4ccccc34)n2)cc1` [Example 51, N-(3-{3-[2-({4-[(ethylsulfonyl)methyl]phenyl}amino)-4-pyrimidinyl]pyrazolo[1,5-a]pyridin-2-yl}phenyl)-2,5-difluorobenzamide]: the “Activity (Method): pIC50 class” value in assay [1] (setting [3]) is given as “+++ (A) (at least one pIC50 measurement of greater than 7 against either ErbB2 or EGFR)”. For the same compound, in assay [2], the IC50 is 100 to 1000 nM.

With `Cc1cccc(C(=O)Nc2cccc(-c3nn4ccccc4c3-c3ccnc(Nc4cccc(F)c4)n3)c2)c1` [Example 18, N-(3-{3-[2-(3-Fluoro-phenylamino)-pyrimidin-4-yl]-pyrazolo[1,5-a]pyridin-2-yl}-phenyl)-3-methyl-benzamide], the “Activity (Method): pIC50 class” value in assay [1] (setting [4]) is recorded as “++ (B) (at least one pIC50 measurement greater than 6 against either ErbB2 or EGFR but no measurement greater than pIC50 of 7)”. Moreover, the IC50 in assay [2] is 100 to 1000 nM.

`O=C(Nc1cccc(-c2nn3ccccc3c2-c2ccnc(Nc3ccc4c(c3)OCCO4)n2)c1)c1c(F)cccc1F` [Example 114, N-(3-{3-[2-(2,3-dihydro-1,4-benzodioxin-6-ylamino)-4-pyrimidinyl]pyrazolo[1,5-a]pyridin-2-yl}phenyl)-2,6-difluorobenzamide]: the “Activity (Method): pIC50 class” value in assay [1] (setting [3]) is “+++ (A) (at least one pIC50 measurement of greater than 7 against either ErbB2 or EGFR)”. For the same compound, the IC50 in assay [2] is less than 100 nM.

Regarding `COc1ccc(Nc2nccc(-c3c(-c4cccc(NC(=O)c5c(F)cccc5F)c4)nn4c(C(F)(F)F)cccc34)n2)cc1F` [Example 154, N-[3-(3-[2-{3-fluoro4-methoxyphenylamino]-4-pyrimidinyl}-7-trifluoropyrazolo[1,5-b]pyridin-2-yl)phenyl]-2,6-difluorobenzamide], the “Activity (Method): pIC50 class” value in assay [1] (setting [3]) is “++ (A) (at least one pIC50 measurement greater than 6 against either ErbB2 or EGFR but no measurement greater than pIC50 of 7)”. For the same compound, the IC50 in assay [2] was in the range of 100 to 1000 nM.

As for `O=C(Nc1cccc(-c2nn3ccccc3c2-c2ccnc(Nc3cccc(F)c3)n2)c1)c1ccccc1F` [Example 12, 2-Fluoro-N-(3-{3-[2-(3-fluoro-phenylamino)-pyrimidin-4-yl]-pyrazolo[1,5-a]pyridin-2-yl}-phenyl)-benzamide], in assay [1] (setting [4]), the “Activity (Method): pIC50 class” value is listed as “++ (B) (at least one pIC50 measurement greater than 6 against either ErbB2 or EGFR but no measurement greater than pIC50 of 7)”. Moreover, the IC50 in assay [2] was less than 100 nM.

Consider `O=C(Nc1cccc(-c2nn3ccccc3c2-c2ccnc(Nc3cccc(F)c3)n2)c1)c1cccnc1` [Example 66, N-[3-(3-{2-[(3-fluorophenyl)amino]-4-pyrimidinyl}pyrazolo[1,5-a]pyridin-2-yl)phenyl]-3-pyridinecarboxamide], for which the “Activity (Method): pIC50 class” value in assay [1] (setting [4]) is “++ (B) (at least one pIC50 measurement greater than 6 against either ErbB2 or EGFR but no measurement greater than pIC50 of 7)”. Besides, the IC50 in assay [2] fell in the range of 100 to 1000 nM.

Turning to `Cc1ccc(Nc2nccc(-c3c(-c4cccc(NC(=O)c5cc(F)ccc5F)c4)nn4ccccc34)n2)cc1S(N)(=O)=O` [Example 52, N-{3-[3-(2-{[3-(Aminosulfonyl)-4-methylphenyl]amino}-4-pyrimidinyl)pyrazolo[1,5-a]pyridin-2-yl]phenyl}-2,5-difluorobenzamide], the “Activity (Method): pIC50 class” value in assay [1] (setting [3]) is “+++ (A) (at least one pIC50 measurement of greater than 7 against either ErbB2 or EGFR)”. Also, the IC50 in assay [2] was in the range of 100 to 1000 nM.

As for `O=C(Nc1cccc(-c2nn3ccccc3c2-c2ccnc(Nc3ccc(N4CCCCC4)c(F)c3)n2)c1)c1c(F)cccc1F` [Example 147, 2,6-Difluoro-N-{3-[3-(2-{[3-fluoro-4-(1-piperidinyl)-phenyl]amino}-4-pyrimidinyl)pyrazolo[1,5-a]pyridin-2-yl]phenyl}benzamide], in assay [1] (setting [3]), the “Activity (Method): pIC50 class” value is reported as “+++ (A) (at least one pIC50 measurement of greater than 7 against either ErbB2 or EGFR)”. Moreover, the concentration for half-maximal inhibition (IC50) in assay [2] was in the range of 100 to 1000 nM.

Take `O=C(Nc1cccc(-c2nn3ccccc3c2-c2ccnc(Nc3ccc(Cl)c(C(F)(F)F)c3)n2)c1)c1c(F)cccc1F` [Example 89]: the “Activity (Method): pIC50 class” value in assay [1] (setting [3]) is on record as “++ (A) (at least one pIC50 measurement greater than 6 against either ErbB2 or EGFR but no measurement greater than pIC50 of 7)”. Besides, the IC50 in assay [2] was in the range of 100 to 1000 nM.

Regarding `O=C(Nc1cccc(-c2nn3ccccc3c2-c2ccnc(Nc3ccccc3)n2)c1)c1c(F)cccc1F` [Example 34, 2,6-Difluoro-N-(3-{3-[2-(phenylamino)-4-pyrimidinyl]pyrazolo[1,5-a]pyridin-2-yl}phenyl)benzamide], the “Activity (Method): pIC50 class” value in assay [1] (setting [4]) is listed as “+++ (B) (at least one pIC50 measurement of greater than 7 against either ErbB2 or EGFR)”. Further, the IC50 in assay [2] is less than 100 nM.

With `S=C(Nc1cccc(-c2nn3ccccc3c2-c2ccnc(Nc3ccc4c(c3)OCCO4)n2)c1)c1ccccc1` [Example 7, N-(3-{3-[2-(2,3-Dihydro-benzo[1,4]dioxin-6-ylamino)-pyrimidin-4-yl]-pyrazolo[1,5-a]pyridin-2-yl}-phenyl)-thiobenzamide], in assay [1] (setting [3]), the “Activity (Method): pIC50 class” value is “++ (A) (at least one pIC50 measurement greater than 6 against either ErbB2 or EGFR but no measurement greater than pIC50 of 7)”. The IC50 in assay [2] was in the range of 100 to 1000 nM.

For `COc1ccccc1C(=O)Nc1cccc(-c2nn3ccccc3c2-c2ccnc(Nc3cccc(F)c3)n2)c1` [Example 69, N-[3-(3-{2-[(3-fluorophenyl)amino]-4-pyrimidinyl}pyrazolo[1,5-a]pyridin-2-yl)phenyl]-2-(methyloxy)benzamide], the “Activity (Method): pIC50 class” value in assay [1] (setting [4]) was “+++ (B) (at least one pIC50 measurement of greater than 7 against either ErbB2 or EGFR)”. The IC50 in assay [2] is 100 to 1000 nM.

For the compound `O=C(Nc1cccc(-c2nn3ccccc3c2-c2ccnc(Nc3cccc(F)c3)n2)c1)c1ccncc1` [Example 75, N-[3-(3-{2-[(3-Fluorophenyl)amino]-4-pyrimidinyl}pyrazolo[1,5-a]pyrindin-2-yl)phenyl]-4-pyridinecarboxamide], the “Activity (Method): pIC50 class” value in assay [1] (setting [4]) was “+++ (B) (at least one pIC50 measurement of greater than 7 against either ErbB2 or EGFR)”. Moreover, in assay [2], the IC50 was 100 to 1000 nM.

As for `O=C(Nc1cccc(-c2nn3ccccc3c2-c2ccnc(Nc3ccc(N4CCOCC4)cc3)n2)c1)c1c(F)cccc1F` [Example 27, 2,6-Difluoro-N-{3-[3-(2-{[4-(4-morpholinyl)phenyl]amino}-4-pyrimidinyl)pyrazolo[1,5-a]pyridin-2-yl]phenyl}benzamide], in assay [1] (setting [4]), the “Activity (Method): pIC50 class” value was “++ (B) (at least one pIC50 measurement greater than 6 against either ErbB2 or EGFR but no measurement greater than pIC50 of 7)”. Besides, the IC50 in assay [2] was less than 100 nM.

With `O=C(Nc1cccc(-c2nn3ccccc3c2-c2ccnc(Nc3cccc(F)c3)n2)c1)c1c(F)cccc1Cl` [Example 37, 2-Chloro-6-fluoro-N-[3-(3-{2-[(3-fluorophenyl)amino]-4-pyrimidinyl}pyrazolo[1,5-a]pyridin-2-yl)phenyl]benzamide], the “Activity (Method): pIC50 class” value in assay [1] (setting [4]) is given as “+++ (B) (at least one pIC50 measurement of greater than 7 against either ErbB2 or EGFR)”. Moreover, the IC50 in assay [2] is less than 100 nM.

One may read the IC50 as the point on the concentration scale where inhibition reaches its midpoint.

The values above are taken from patent US7812022B2 (GlaxoSmithKline LLC, priority 2004, dated 2010).
